# In PubChem BioAssay (NCI):
#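 Assay format: 96-well plates, 48-hour exposure. GI50 marks 50% less growth. TGI marks complete inhibition of growth.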
# Tests used:
# Experiment in all cases: NCI-60 cell line screen, 48 h
# 786-0 renal = tested on: 786-0 renal
# A498 renal = tested on: A498 renal
# A549 NSCLC = tested on: A549 NSCLC
# ACHN renal = tested on: ACHN renal
# BT-549 breast = tested on: BT-549 breast
# CAKI-1 renal = tested on: CAKI-1 renal
# CCRF-CEM leukemia = tested on: CCRF-CEM leukemia
# COLO 205 colon = tested on: COLO 205 colon
# DU-145 prostate = tested on: DU-145 prostate
# EKVX NSCLC = tested on: EKVX NSCLC
# HCC-2998 colon = tested on: HCC-2998 colon
# HCT-116 colon = tested on: HCT-116 colon
# HCT-15 colon = tested on: HCT-15 colon
# HOP-62 NSCLC = tested on: HOP-62 NSCLC
# HOP-92 NSCLC = tested on: HOP-92 NSCLC
# HS 578T breast = tested on: HS 578T breast
# HT29 colon = tested on: HT29 colon
# IGROV1 ovarian = tested on: IGROV1 ovarian
# K-562 leukemia = tested on: K-562 leukemia
# KM12 colon = tested on: KM12 colon
# LOX IMVI melanoma = tested on: LOX IMVI melanoma
# MALME-3M melanoma = tested on: MALME-3M melanoma
# MCF7 breast = tested on: MCF7 breast
# MDA-MB-231 breast = tested on: MDA-MB-231 breast
# MDA-MB-435 = tested on: MDA-MB-435
# MOLT-4 leukemia = tested on: MOLT-4 leukemia
# NCI-H226 lung = tested on: NCI-H226 lung
# NCI-H23 lung = tested on: NCI-H23 lung
# NCI-H460 lung = tested on: NCI-H460 lung
# NCI-H522 lung = tested on: NCI-H522 lung
# NCI/ADR-RES ovarian = tested on: NCI/ADR-RES ovarian
# OVCAR-3 ovarian = tested on: OVCAR-3 ovarian
# OVCAR-4 ovarian = tested on: OVCAR-4 ovarian
# OVCAR-5 ovarian = tested on: OVCAR-5 ovarian
# OVCAR-8 ovarian = tested on: OVCAR-8 ovarian
# PC-3 prostate = tested on: PC-3 prostate
# RPMI-8226 leukemia = tested on: RPMI-8226 leukemia
# RXF 393 renal = tested on: RXF 393 renal
# SF-268 CNS = tested on: SF-268 CNS
# SF-295 CNS = tested on: SF-295 CNS
# SF-539 CNS = tested on: SF-539 CNS
# SK-MEL-2 melanoma = tested on: SK-MEL-2 melanoma
# SK-MEL-28 melanoma = tested on: SK-MEL-28 melanoma
# SK-MEL-5 melanoma = tested on: SK-MEL-5 melanoma
# SK-OV-3 ovarian = tested on: SK-OV-3 ovarian
# SN12C renal = tested on: SN12C renal
# SNB-19 CNS = tested on: SNB-19 CNS
# SW-620 colon = tested on: SW-620 colon
# T-47D breast = tested on: T-47D breast
# TK-10 renal = tested on: TK-10 renal
# U251 CNS = tested on: U251 CNS
# UACC-257 melanoma = tested on: UACC-257 melanoma
# UACC-62 melanoma = tested on: UACC-62 melanoma
# UO-31 renal = tested on: UO-31 renal
# M14 melanoma = tested on: M14 melanoma
# SNB-75 CNS = tested on: SNB-75 CNS
smiles,measurement,setting,value
O=C(CN(/C=C/C(=O)C(F)(F)F)c1ccccc1)c1ccc(Cl)cc1,GI50,786-0 renal,15.3 µM
same,TGI,786-0 renal,29.1 µM
same,GI50,A498 renal,20.4 µM
same,TGI,A498 renal,42.2 µM
same,GI50,A549 NSCLC,21.1 µM
same,TGI,A549 NSCLC,77.5 µM
same,GI50,ACHN renal,21.7 µM
same,TGI,ACHN renal,56.3 µM
same,GI50,BT-549 breast,31.2 µM
same,TGI,BT-549 breast,91.9 µM
same,GI50,CAKI-1 renal,17.8 µM
same,TGI,CAKI-1 renal,42.5 µM
same,GI50,CCRF-CEM leukemia,21 µM
same,TGI,CCRF-CEM leukemia,49.9 µM
same,GI50,COLO 205 colon,22.1 µM
same,TGI,COLO 205 colon,49.1 µM
same,GI50,DU-145 prostate,37.7 µM
same,TGI,DU-145 prostate,> 100 µM
same,GI50,EKVX NSCLC,40 µM
same,TGI,EKVX NSCLC,> 100 µM
same,GI50,HCC-2998 colon,14.7 µM
same,TGI,HCC-2998 colon,28.5 µM
same,GI50,HCT-116 colon,12 µM
same,TGI,HCT-116 colon,24.5 µM
same,GI50,HCT-15 colon,19.2 µM
same,TGI,HCT-15 colon,46 µM
same,GI50,HOP-62 NSCLC,17.2 µM
same,TGI,HOP-62 NSCLC,31.8 µM
same,GI50,HOP-92 NSCLC,19.1 µM
same,TGI,HOP-92 NSCLC,42.1 µM
same,GI50,HS 578T breast,28.2 µM
same,TGI,HS 578T breast,64.6 µM
same,GI50,HT29 colon,34.5 µM
same,TGI,HT29 colon,> 100 µM
same,GI50,IGROV1 ovarian,15.5 µM
same,TGI,IGROV1 ovarian,43.8 µM
same,GI50,K-562 leukemia,20.9 µM
same,TGI,K-562 leukemia,53.2 µM
same,GI50,KM12 colon,15.2 µM
same,TGI,KM12 colon,37.7 µM
same,GI50,LOX IMVI melanoma,16 µM
same,TGI,LOX IMVI melanoma,32.6 µM
same,GI50,MALME-3M melanoma,18.1 µM
same,TGI,MALME-3M melanoma,40.7 µM
same,GI50,MCF7 breast,24.5 µM
same,TGI,MCF7 breast,67.1 µM
same,GI50,MDA-MB-231 breast,16.5 µM
same,TGI,MDA-MB-231 breast,33.3 µM
same,GI50,MDA-MB-435,19.5 µM
same,TGI,MDA-MB-435,42.6 µM
same,GI50,MOLT-4 leukemia,19.9 µM
same,TGI,MOLT-4 leukemia,52.5 µM
same,GI50,NCI-H226 lung,18.1 µM
same,TGI,NCI-H226 lung,33.1 µM
same,GI50,NCI-H23 lung,17.1 µM
same,TGI,NCI-H23 lung,35.4 µM
same,GI50,NCI-H460 lung,16.1 µM
same,TGI,NCI-H460 lung,38.2 µM
same,GI50,NCI-H522 lung,14.5 µM
same,TGI,NCI-H522 lung,35.4 µM
same,GI50,NCI/ADR-RES ovarian,17.6 µM
same,TGI,NCI/ADR-RES ovarian,36 µM
same,GI50,OVCAR-3 ovarian,21.6 µM
same,TGI,OVCAR-3 ovarian,46.7 µM
same,GI50,OVCAR-4 ovarian,26.6 µM
same,TGI,OVCAR-4 ovarian,70.1 µM
same,GI50,OVCAR-5 ovarian,22.2 µM
same,TGI,OVCAR-5 ovarian,46.4 µM
same,GI50,OVCAR-8 ovarian,18.6 µM
same,TGI,OVCAR-8 ovarian,45.5 µM
same,GI50,PC-3 prostate,16.1 µM
same,TGI,PC-3 prostate,34.2 µM
same,GI50,RPMI-8226 leukemia,9.66 µM
same,TGI,RPMI-8226 leukemia,43.1 µM
same,GI50,RXF 393 renal,17.1 µM
same,TGI,RXF 393 renal,42.6 µM
same,GI50,SF-268 CNS,18.9 µM
same,TGI,SF-268 CNS,38.8 µM
same,GI50,SF-295 CNS,18.8 µM
same,TGI,SF-295 CNS,48.2 µM
same,GI50,SF-539 CNS,22.7 µM
same,TGI,SF-539 CNS,47 µM
same,GI50,SK-MEL-2 melanoma,19.2 µM
same,TGI,SK-MEL-2 melanoma,43.9 µM
same,GI50,SK-MEL-28 melanoma,20.7 µM
same,TGI,SK-MEL-28 melanoma,44.6 µM
same,GI50,SK-MEL-5 melanoma,16.4 µM
same,TGI,SK-MEL-5 melanoma,31.6 µM
same,GI50,SK-OV-3 ovarian,36.4 µM
same,TGI,SK-OV-3 ovarian,> 100 µM
same,GI50,SN12C renal,16 µM
same,TGI,SN12C renal,29.9 µM
same,GI50,SNB-19 CNS,22 µM
same,TGI,SNB-19 CNS,51.5 µM
same,GI50,SW-620 colon,22.1 µM
same,TGI,SW-620 colon,45.8 µM
same,GI50,T-47D breast,30 µM
same,TGI,T-47D breast,> 100 µM
same,GI50,TK-10 renal,28 µM
same,TGI,TK-10 renal,88.2 µM
same,GI50,U251 CNS,15.7 µM
same,TGI,U251 CNS,29.5 µM
same,GI50,UACC-257 melanoma,19.9 µM
same,TGI,UACC-257 melanoma,45.9 µM
same,GI50,UACC-62 melanoma,13.1 µM
same,TGI,UACC-62 melanoma,25.8 µM
same,GI50,UO-31 renal,19.9 µM
same,TGI,UO-31 renal,41.7 µM
O=C(O)Cn1ccc2ccccc21,GI50,786-0 renal,> 100 µM
same,TGI,786-0 renal,> 100 µM
same,GI50,A498 renal,> 100 µM
same,TGI,A498 renal,> 100 µM
same,GI50,A549 NSCLC,> 100 µM
same,TGI,A549 NSCLC,> 100 µM
same,GI50,ACHN renal,> 100 µM
same,TGI,ACHN renal,> 100 µM
same,GI50,BT-549 breast,> 100 µM
same,TGI,BT-549 breast,> 100 µM
same,GI50,CAKI-1 renal,> 100 µM
same,TGI,CAKI-1 renal,> 100 µM
same,GI50,CCRF-CEM leukemia,> 100 µM
same,TGI,CCRF-CEM leukemia,> 100 µM
same,GI50,COLO 205 colon,> 100 µM
same,TGI,COLO 205 colon,> 100 µM
same,GI50,DU-145 prostate,> 100 µM
same,TGI,DU-145 prostate,> 100 µM
same,GI50,EKVX NSCLC,> 100 µM
same,TGI,EKVX NSCLC,> 100 µM
same,GI50,HCC-2998 colon,> 100 µM
same,TGI,HCC-2998 colon,> 100 µM
same,GI50,HCT-116 colon,> 100 µM
same,TGI,HCT-116 colon,> 100 µM
same,GI50,HCT-15 colon,> 100 µM
same,TGI,HCT-15 colon,> 100 µM
same,GI50,HOP-62 NSCLC,> 100 µM
same,TGI,HOP-62 NSCLC,> 100 µM
same,TGI,HOP-92 NSCLC,> 100 µM
same,GI50,HS 578T breast,> 100 µM
same,TGI,HS 578T breast,> 100 µM
same,GI50,HT29 colon,> 100 µM
same,TGI,HT29 colon,> 100 µM
same,GI50,IGROV1 ovarian,72.7 µM
same,TGI,IGROV1 ovarian,> 100 µM
same,GI50,KM12 colon,> 100 µM
same,TGI,KM12 colon,> 100 µM
same,GI50,LOX IMVI melanoma,> 100 µM
same,TGI,LOX IMVI melanoma,> 100 µM
same,GI50,M14 melanoma,> 100 µM
same,TGI,M14 melanoma,> 100 µM
same,GI50,MALME-3M melanoma,> 100 µM
same,TGI,MALME-3M melanoma,> 100 µM
same,GI50,MCF7 breast,> 100 µM
same,TGI,MCF7 breast,> 100 µM
same,GI50,MDA-MB-231 breast,> 100 µM
same,TGI,MDA-MB-231 breast,> 100 µM
same,GI50,MDA-MB-435,> 100 µM
same,TGI,MDA-MB-435,> 100 µM
same,GI50,NCI-H226 lung,> 100 µM
same,TGI,NCI-H226 lung,> 100 µM
same,GI50,NCI-H23 lung,> 100 µM
same,TGI,NCI-H23 lung,> 100 µM
same,GI50,NCI-H460 lung,> 100 µM
same,TGI,NCI-H460 lung,> 100 µM
same,GI50,NCI-H522 lung,> 100 µM
same,TGI,NCI-H522 lung,> 100 µM
same,GI50,NCI/ADR-RES ovarian,> 100 µM
same,TGI,NCI/ADR-RES ovarian,> 100 µM
same,GI50,OVCAR-3 ovarian,> 100 µM
same,TGI,OVCAR-3 ovarian,> 100 µM
same,GI50,OVCAR-4 ovarian,> 100 µM
same,TGI,OVCAR-4 ovarian,> 100 µM
same,GI50,OVCAR-5 ovarian,> 100 µM
same,TGI,OVCAR-5 ovarian,> 100 µM
same,GI50,OVCAR-8 ovarian,> 100 µM
same,TGI,OVCAR-8 ovarian,> 100 µM
same,GI50,PC-3 prostate,> 100 µM
same,TGI,PC-3 prostate,> 100 µM
same,GI50,RPMI-8226 leukemia,> 100 µM
same,TGI,RPMI-8226 leukemia,> 100 µM
same,GI50,RXF 393 renal,> 100 µM
same,TGI,RXF 393 renal,> 100 µM
same,GI50,SF-268 CNS,> 100 µM
same,TGI,SF-268 CNS,> 100 µM
same,GI50,SF-295 CNS,> 100 µM
same,TGI,SF-295 CNS,> 100 µM
same,GI50,SF-539 CNS,> 100 µM
same,TGI,SF-539 CNS,> 100 µM
same,GI50,SK-MEL-2 melanoma,> 100 µM
same,TGI,SK-MEL-2 melanoma,> 100 µM
same,GI50,SK-MEL-28 melanoma,> 100 µM
same,TGI,SK-MEL-28 melanoma,> 100 µM
same,GI50,SK-MEL-5 melanoma,> 100 µM
same,TGI,SK-MEL-5 melanoma,> 100 µM
same,GI50,SK-OV-3 ovarian,> 100 µM
same,TGI,SK-OV-3 ovarian,> 100 µM
same,GI50,SN12C renal,> 100 µM
same,TGI,SN12C renal,> 100 µM
same,GI50,SNB-19 CNS,> 100 µM
same,TGI,SNB-19 CNS,> 100 µM
same,GI50,SNB-75 CNS,> 100 µM
same,TGI,SNB-75 CNS,> 100 µM
same,GI50,SW-620 colon,> 100 µM
same,TGI,SW-620 colon,> 100 µM
same,GI50,T-47D breast,> 100 µM
same,TGI,T-47D breast,> 100 µM
same,GI50,U251 CNS,> 100 µM
same,TGI,U251 CNS,> 100 µM
same,GI50,UACC-257 melanoma,> 100 µM
same,TGI,UACC-257 melanoma,> 100 µM
same,GI50,UACC-62 melanoma,> 100 µM
same,TGI,UACC-62 melanoma,> 100 µM
same,GI50,UO-31 renal,> 100 µM
same,TGI,UO-31 renal,> 100 µM
